TGI and GI50 data for eight compounds are collected here from PubChem BioAssay (NCI).

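Method: 48-hour compound exposure of cells in 96-well plates, five concentrations, linear interpolation of endpoints. GI50: concentration for 50% inhibition of growth. TGI is the concentration that stops growth completely.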 A value given as a limit tells only on which side of the number the result lay.

Test systems include A549 NSCLC; HOP-62 NSCLC; K-562 leukemia; NCI-H23 lung; NCI/ADR-RES ovarian; OVCAR-5 ovarian; RPMI-8226 leukemia; SNB-75 CNS; SW-620 colon; UACC-257 melanoma.
Holding throughout (assay): inhibition of tumour cell growth, NCI panel, 48 h

Regarding `Cc1ccc(N(C=O)c2c([N+](=O)[O-])cc([N+](=O)[O-])c3c2=[N+]([O-])CN=3)cc1`, the TGI is above 100 µM in the assay with A549 NSCLC; above 100 µM in the assay on HOP-62 NSCLC; 82.7 µM in the assay with K-562 leukemia; 68.1 µM in the assay on NCI-H23 lung; 92.2 µM in the assay with NCI/ADR-RES ovarian; above 100 µM with OVCAR-5 ovarian. The TGI in the assay with RPMI-8226 leukemia was 69.2 µM; in the assay on SNB-75 CNS, 95.2 µM; with SW-620 colon it was above 100 µM; in the assay on UACC-257 melanoma, 58 µM.

For the compound `O=C(O)CCC(c1ccccc1)(c1ccccc1)c1ccccc1`, the TGI with A549 NSCLC, in the assay on HOP-62 NSCLC, with K-562 leukemia, with NCI-H23 lung, in the assay on NCI/ADR-RES ovarian and with OVCAR-5 ovarian was above 100 µM throughout. Besides, the TGI in the assay on RPMI-8226 leukemia is above 94.3 µM; in the assay with SNB-75 CNS, above 100 µM; in the assay with SW-620 colon, above 100 µM; with UACC-257 melanoma it was above 100 µM. Besides, in the assay with SNB-75 CNS, the GI50 is above 100 µM.

Take `CCc1nc(C)cn1C(=O)OCc1nc2nc(Cl)nc(N3CCOCC3)c2[nH]1`: the GI50 in the assay with A549 NSCLC was 1.83 µM; in the assay on HOP-62 NSCLC, 1.54 µM; in the assay on K-562 leukemia, 0.703 µM; in the assay on NCI-H23 lung it was 1.55 µM; in the assay on NCI/ADR-RES ovarian, 2.64 µM; in the assay with OVCAR-5 ovarian, 1.44 µM. Further, the GI50 in the assay on RPMI-8226 leukemia was 0.696 µM; in the assay with SNB-75 CNS it was 0.579 µM; in the assay with SW-620 colon, 1.11 µM; in the assay with UACC-257 melanoma it was 1.6 µM. Moreover, the TGI in the assay on A549 NSCLC is 4.36 µM; in the assay with HOP-62 NSCLC, 3.56 µM; in the assay with K-562 leukemia, above 100 µM; in the assay on NCI-H23 lung it was 3.35 µM; in the assay with NCI/ADR-RES ovarian it was 9.02 µM; in the assay with OVCAR-5 ovarian, 2.99 µM. Further, the TGI worked out at 3.1 µM with RPMI-8226 leukemia, 2.06 µM in the assay on SNB-75 CNS, 2.69 µM in the assay with SW-620 colon and 3.26 µM with UACC-257 melanoma.

For `Cn1ncc(C#N)c1-c1ccc2c(c1)CN([C@H](CN)Cc1cccc(F)c1)C2=O`, the GI50 is 5.34 µM in the assay with A549 NSCLC; 23.6 µM with HOP-62 NSCLC; 27.4 µM in the assay with K-562 leukemia; 20 µM in the assay on NCI-H23 lung; above 100 µM in the assay with NCI/ADR-RES ovarian; 18.6 µM in the assay on OVCAR-5 ovarian. Also, the GI50 in the assay with RPMI-8226 leukemia was 2.34 µM; in the assay with SNB-75 CNS it was 0.0925 µM; with SW-620 colon, 23.3 µM; with UACC-257 melanoma it was 5.99 µM. Also, the TGI with A549 NSCLC, in the assay with HOP-62 NSCLC, in the assay with K-562 leukemia, with NCI-H23 lung, in the assay with NCI/ADR-RES ovarian and with OVCAR-5 ovarian was above 100 µM in each case. Also, the TGI with RPMI-8226 leukemia was 18.3 µM; in the assay with SNB-75 CNS, 3.09 µM; in the assay on SW-620 colon, above 100 µM; in the assay on UACC-257 melanoma, 66.6 µM.

Take `Oc1ccc2c(=S)cc(-c3ccc(Br)cc3)oc2c1O`: the GI50 in the assay with A549 NSCLC was 3.26 µM; in the assay on HOP-62 NSCLC it was 1.5 µM; in the assay with K-562 leukemia it was 2.47 µM; in the assay with NCI-H23 lung, 1.52 µM; with NCI/ADR-RES ovarian it was 1.43 µM; in the assay with OVCAR-5 ovarian, 5.83 µM. Also, the GI50 with RPMI-8226 leukemia was 1.32 µM; with SNB-75 CNS, 4.56 µM; in the assay on SW-620 colon, 2.6 µM; in the assay on UACC-257 melanoma it was 2.88 µM. Moreover, the TGI in the assay with HOP-62 NSCLC was 6.73 µM; in the assay on K-562 leukemia, above 100 µM; with NCI-H23 lung it was 6.38 µM; in the assay on NCI/ADR-RES ovarian it was 6.05 µM; with OVCAR-5 ovarian, 78 µM; in the assay on RPMI-8226 leukemia, 18.3 µM. The TGI is above 100 µM in the assay on SNB-75 CNS, 21.6 µM in the assay with SW-620 colon and 8.25 µM in the assay on UACC-257 melanoma.

For the compound `O=C(/C=C/c1ccccc1)c1cccc2ccccc12`, the GI50 was 2.96 µM in the assay with A549 NSCLC; 4.25 µM in the assay with HOP-62 NSCLC; 1.61 µM in the assay with K-562 leukemia; 3.19 µM with NCI-H23 lung; 3.27 µM in the assay with NCI/ADR-RES ovarian; 3.78 µM in the assay on OVCAR-5 ovarian. In addition, the GI50 in the assay with RPMI-8226 leukemia is 1.93 µM; in the assay on SNB-75 CNS, 2.19 µM; in the assay with SW-620 colon, 2.42 µM; with UACC-257 melanoma, 4.13 µM. Further, the TGI in the assay on A549 NSCLC amounted to 10.3 µM; in the assay on HOP-62 NSCLC, 13.5 µM; in the assay with K-562 leukemia, 5.26 µM; in the assay on NCI-H23 lung, 11.9 µM; in the assay on NCI/ADR-RES ovarian, 19.6 µM; in the assay on OVCAR-5 ovarian, 17.4 µM. Besides, the TGI with RPMI-8226 leukemia is 5.86 µM; in the assay with SNB-75 CNS, 7.27 µM; in the assay with SW-620 colon, 6 µM; with UACC-257 melanoma, 15.5 µM.

In the case of `CCCCC(=O)N(c1ccc(Nc2c3ccccc3nc3cc([N+](=O)[O-])ccc23)cc1)S(C)(=O)=O`, the GI50 in the assay with A549 NSCLC is 1.99 µM; in the assay with HOP-62 NSCLC, 4.52 µM; in the assay with K-562 leukemia it was 5.16 µM; with NCI-H23 lung it was 12.6 µM; in the assay with NCI/ADR-RES ovarian, 27 µM; with OVCAR-5 ovarian, 77.6 µM. Besides, the GI50 with RPMI-8226 leukemia is 2.68 µM; with SNB-75 CNS, 4.7 µM; in the assay with SW-620 colon it was 5.73 µM; with UACC-257 melanoma, 14.6 µM. Moreover, the TGI is 62.2 µM in the assay on A549 NSCLC; 52.5 µM in the assay with HOP-62 NSCLC; above 47.4 µM in the assay with K-562 leukemia; 42.5 µM in the assay with NCI-H23 lung; above 100 µM in the assay with NCI/ADR-RES ovarian; above 100 µM in the assay with OVCAR-5 ovarian. The TGI in the assay with RPMI-8226 leukemia was 14.3 µM; in the assay with SNB-75 CNS, 64.8 µM; in the assay with SW-620 colon, 31 µM; in the assay on UACC-257 melanoma, 62.5 µM.

With `COc1ccc(OC)c(Nc2nc3nonc3nc2Nc2cccc(Br)c2)c1`, the GI50 in the assay with A549 NSCLC was 0.713 µM; with HOP-62 NSCLC, 1.62 µM; with K-562 leukemia, 0.556 µM; in the assay with NCI-H23 lung, 0.41 µM; in the assay with NCI/ADR-RES ovarian, 0.541 µM; in the assay on OVCAR-5 ovarian it was 2.56 µM. The GI50 in the assay on RPMI-8226 leukemia is 0.309 µM; in the assay on SNB-75 CNS, 1.25 µM; in the assay on SW-620 colon, 0.86 µM; in the assay with UACC-257 melanoma it was 0.508 µM. Also, the TGI was above 100 µM in the assay on A549 NSCLC; 7.43 µM with HOP-62 NSCLC; 17.5 µM in the assay on K-562 leukemia; 5.49 µM in the assay with NCI-H23 lung; 13.9 µM in the assay on NCI/ADR-RES ovarian; above 100 µM in the assay on OVCAR-5 ovarian. The TGI is 3.05 µM in the assay with RPMI-8226 leukemia, 8.12 µM in the assay on SNB-75 CNS, above 100 µM in the assay with SW-620 colon and 7.37 µM with UACC-257 melanoma.
